Source: the supplement of paper PMC11208160

Assay: recombinant barcode read abundance after kanamycin selection (control-corrected) (log10(CPM+1)); higher = more efficient recombination; sequences stand for … in AGTGCAGAGAAAATCGGCCAGTTTTCTCTGCCTGCAGTCCGCATGCCGT…AGATTTATGCAGCGGACTGCCTTTCTCCCAAAGTGATAAACCGGACAGTATCATGGACCGGTTTTCCCGGTAATCCGTATTTGCAAGGTTGGTTTCACT; site = the 11-nt target
Outline: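 A vector carrying a T7-inducible recombinase and the last 73 bp of the bridge RNA received, by Gibson cloning, oligos encoding a promoter, target, barcode and the first 104 bridge RNA bases under J23119. The pooled constructs entered E. coli together with a donor plasmid by electroporation. Selection used chloramphenicol/ampicillin/kanamycin with 0.1 mM IPTG, with chloramphenicol/ampicillin LB agar as the control, each in two replicates. Recombination efficiency is the averaged, control-corrected counts-per-million of barcodes at recombinant junctions, reported as log10(CPM+1).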
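Further: IS621 recombinase and bridge RNA in Escherichia coli cells.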

Sequence: CCATGGACTTGGGTTCTAACCTGTTGCCT (site CCACGGACTAG)
- recombinant barcode read abundance (log10): 0.516

Sequence: CCATGGACTTGGGTTCTAACCTGTTGCCT (site CCAGGGACTAG)
- recombinant barcode read abundance (log10): 0.0382

Sequence: CCATGGACTTGGGTTCTAACCTGTTGCCT (site CCATGGACTAG)
- recombinant barcode read abundance (log10): 0.252

Sequence: CCGAAGACTTGGGTTCTAACCTGTTGCCT (site CCGAAGACTAG)
- recombinant barcode read abundance (log10): 0.112

Sequence: CCGAAGACTTGGGTTCTAACCTGTTGCCT (site TCGAAGACTTG)
- recombinant barcode read abundance (log10): 0.492

Sequence: CCGACTCCTTGGGTTCTAACCTGTTGCCT (site CCGAATCCTAG)
- recombinant barcode read abundance (log10): 0.0273

Sequence: CCGACTCCTTGGGTTCTAACCTGTTGCCT (site CCGACTCCTAG)
- recombinant barcode read abundance (log10): 0.13

Sequence: CCGACTCCTTGGGTTCTAACCTGTTGCCT (site CCGAGTCCTAG)
- recombinant barcode read abundance (log10): 0

Sequence: CCGACTCCTTGGGTTCTAACCTGTTGCCT (site CCGATTCCTAG)
- recombinant barcode read abundance (log10): 0.102

Sequence: CCGATTCCTTGGGTTCTAACCTGTTGCCT (site CCGAATCCTAG)
- recombinant barcode read abundance (log10): 0.153

Sequence: CCGATTCCTTGGGTTCTAACCTGTTGCCT (site CCGACTCCTAG)
- recombinant barcode read abundance (log10): 0.171

Sequence: CCGATTCCTTGGGTTCTAACCTGTTGCCT (site CCGAGTCCTAG)
- recombinant barcode read abundance (log10): 0.0319

Sequence: CCGATTCCTTGGGTTCTAACCTGTTGCCT (site CCGATTCCTAG)
- recombinant barcode read abundance (log10): 0.217

Sequence: CCGCAGCCTTGGGTTCTAACCTGTTGCCT (site CCGAAGCCTAG)
- recombinant barcode read abundance (log10): 0.0264

Sequence: CCGCAGCCTTGGGTTCTAACCTGTTGCCT (site CCGCAGCCTAG)
- recombinant barcode read abundance (log10): 1.59

Sequence: CCGCAGCCTTGGGTTCTAACCTGTTGCCT (site CCGGAGCCTAG)
- recombinant barcode read abundance (log10): 0.177

Sequence: CCGCAGCCTTGGGTTCTAACCTGTTGCCT (site CCGTAGCCTAG)
- recombinant barcode read abundance (log10): 0.0447

Sequence: CCGCCAGCTTGGGTTCTAACCTGTTGCCT (site CCGCCAGCTAG)
- recombinant barcode read abundance (log10): 0.171

Sequence: CCGCCAGCTTGGGTTCTAACCTGTTGCCT (site CCGCCCGCTAG)
- recombinant barcode read abundance (log10): 0.0231

Sequence: CCGCCAGCTTGGGTTCTAACCTGTTGCCT (site CCGCCGGCTAG)
- recombinant barcode read abundance (log10): 0.0999

Sequence: CCGCCAGCTTGGGTTCTAACCTGTTGCCT (site CCGCCTGCTAG)
- recombinant barcode read abundance (log10): 0.186

Sequence: CCGCCCGCTTGGGTTCTAACCTGTTGCCT (site CCGCCAGCTAG)
- recombinant barcode read abundance (log10): 0.00972

Sequence: CCGCCCGCTTGGGTTCTAACCTGTTGCCT (site CCGCCCGCTAG)
- recombinant barcode read abundance (log10): 0.473

Sequence: CCGCCCGCTTGGGTTCTAACCTGTTGCCT (site CCGCCGGCTAG)
- recombinant barcode read abundance (log10): 0.083

Sequence: CCGCCCGCTTGGGTTCTAACCTGTTGCCT (site CCGCCTGCTAG)
- recombinant barcode read abundance (log10): 0.0828

Sequence: CCGCCCTCTTGGGTTCTAACCTGTTGCCT (site CAGCCCTCTAG)
- recombinant barcode read abundance (log10): 0.0642

Sequence: CCGCCCTCTTGGGTTCTAACCTGTTGCCT (site CCGCCCTCTAG)
- recombinant barcode read abundance (log10): 1.04

Sequence: CCGCCCTCTTGGGTTCTAACCTGTTGCCT (site CGGCCCTCTAG)
- recombinant barcode read abundance (log10): 0.105

Sequence: CCGCCCTCTTGGGTTCTAACCTGTTGCCT (site CTGCCCTCTAG)
- recombinant barcode read abundance (log10): 0.0291

Sequence: CCGCCTCCTTGGGTTCTAACCTGTTGCGA (site CCGCCTCCTTC)
- recombinant barcode read abundance (log10): 0.616

Sequence: CCGCCTCCTTGGGTTCTAACCTGTTGCGA (site CCGCGTCCTTA)
- recombinant barcode read abundance (log10): 0.0484

Sequence: CCGCGCCCTTGGGTTCTAACCTGTTGCAT (site ACGCGCCCTGT)
- recombinant barcode read abundance (log10): 0.0166

Sequence: CCGCGCCCTTGGGTTCTAACCTGTTGCAT (site CCGCGCCCTAT)
- recombinant barcode read abundance (log10): 0.504

Sequence: CCGCGCTCTTGGGTTCTAACCTGTTGCCT (site CCGCGCACTAG)
- recombinant barcode read abundance (log10): 0.106

Sequence: CCGCGCTCTTGGGTTCTAACCTGTTGCCT (site CCGCGCTCTAG)
- recombinant barcode read abundance (log10): 0.641

Sequence: CCGCGCTCTTGGGTTCTAACCTGTTGCTG (site ACGAGCTCTCA)
- recombinant barcode read abundance (log10): 0

Sequence: CCGCGCTCTTGGGTTCTAACCTGTTGCTG (site CCGCGCTCTCA)
- recombinant barcode read abundance (log10): 0.379

Sequence: CCGCGGCCTTGGGTTCTAACCTGTTGCCT (site ACGCGGCCTAG)
- recombinant barcode read abundance (log10): 0.0555

Sequence: CCGCGGCCTTGGGTTCTAACCTGTTGCCT (site CCGCGGCCTAG)
- recombinant barcode read abundance (log10): 0.459

Sequence: CCGCGGCCTTGGGTTCTAACCTGTTGCCT (site GCGCGGCCTAG)
- recombinant barcode read abundance (log10): 0.0271

Sequence: CCGCGGCCTTGGGTTCTAACCTGTTGCCT (site TCGCGGCCTAG)
- recombinant barcode read abundance (log10): 0.0221

Sequence: CCGCTACCTTGGGTTCTAACCTGTTGCCT (site CAGCTACCTAG)
- recombinant barcode read abundance (log10): 0.109

Sequence: CCGCTACCTTGGGTTCTAACCTGTTGCCT (site CCGCTACCTAG)
- recombinant barcode read abundance (log10): 0.956

Sequence: CCGCTACCTTGGGTTCTAACCTGTTGCCT (site CGGCTACCTAG)
- recombinant barcode read abundance (log10): 0.103

Sequence: CCGCTACCTTGGGTTCTAACCTGTTGCCT (site CTGCTACCTAG)
- recombinant barcode read abundance (log10): 0.19

Sequence: CCGCTGTCTTGGGTTCTAACCTGTTGCCT (site CCGCTGTCTAG)
- recombinant barcode read abundance (log10): 0.394

Sequence: CCGCTGTCTTGGGTTCTAACCTGTTGCCT (site CCTCTGGCTAG)
- recombinant barcode read abundance (log10): 0.167

Sequence: CCGGACCCTTGGGTTCTAACCTGTTGCTG (site CCGGACCCTCA)
- recombinant barcode read abundance (log10): 2.49

Sequence: CCGGACCCTTGGGTTCTAACCTGTTGCTG (site CCGTGCCCTCA)
- recombinant barcode read abundance (log10): 0.336

Sequence: CCGGATGCTTGGGTTCTAACCTGTTGCCT (site CCGAATGCTAG)
- recombinant barcode read abundance (log10): 0.272

Sequence: CCGGATGCTTGGGTTCTAACCTGTTGCCT (site CCGCATGCTAG)
- recombinant barcode read abundance (log10): 0.117

Sequence: CCGGATGCTTGGGTTCTAACCTGTTGCCT (site CCGGATGCTAG)
- recombinant barcode read abundance (log10): 0.775

Sequence: CCGGATGCTTGGGTTCTAACCTGTTGCCT (site CCGTATGCTAG)
- recombinant barcode read abundance (log10): 0.0746

Sequence: CCGGATTCTTGGGTTCTAACCTGTTGCCT (site CCGGATTCTAG)
- recombinant barcode read abundance (log10): 1.69

Sequence: CCGGATTCTTGGGTTCTAACCTGTTGCCT (site CCGGTTGCTAG)
- recombinant barcode read abundance (log10): 0.369

Sequence: CCGGTAACTTGGGTTCTAACCTGTTGCCT (site CCGGTAACTAG)
- recombinant barcode read abundance (log10): 0.45

Sequence: CCGGTAACTTGGGTTCTAACCTGTTGCCT (site CCTGTAGCTAG)
- recombinant barcode read abundance (log10): 0.142

Sequence: CCGGTAGCTTGGGTTCTAACCTGTTGCCA (site CCGGTAGCTTG)
- recombinant barcode read abundance (log10): 0.443

Sequence: CCGGTAGCTTGGGTTCTAACCTGTTGCCA (site GCAGTAGCTTG)
- recombinant barcode read abundance (log10): 0.556

Sequence: CCGGTATCTTGGGTTCTAACCTGTTGCCT (site CCGATATCTAG)
- recombinant barcode read abundance (log10): 0.0308

Sequence: CCGGTATCTTGGGTTCTAACCTGTTGCCT (site CCGCTATCTAG)
- recombinant barcode read abundance (log10): 0.688

Sequence: CCGGTATCTTGGGTTCTAACCTGTTGCCT (site CCGGTATCTAG)
- recombinant barcode read abundance (log10): 0.197

Sequence: CCGGTATCTTGGGTTCTAACCTGTTGCCT (site CCGTTATCTAG)
- recombinant barcode read abundance (log10): 0.0727

Sequence: CCGGTGCCTTGGGTTCTAACCTGTTGCCT (site CAGGTGCCTAG)
- recombinant barcode read abundance (log10): 0.0703

Sequence: CCGGTGCCTTGGGTTCTAACCTGTTGCCT (site CCGGTGCCTAG)
- recombinant barcode read abundance (log10): 2.29

Sequence: CCGGTGCCTTGGGTTCTAACCTGTTGCCT (site CGGGTGCCTAG)
- recombinant barcode read abundance (log10): 1.03
